The target in series [1] is Receptor-type tyrosine-protein kinase FLT3 (Homo sapiens) (UniProt P36888).
Description: Binding affinity to FLT3 (unknown origin) assessed as dissociation half life
A short description of series [2]: Antiproliferative activity against human THP1 cells after 72 hrs by luminescent cell viability assay. Type of series: functional, cell-based. Conditions: THP-1, 72 h.
Series [3] deals with MV4-11. Nature of the series: Antiproliferative activity against human MV4-11 cells after 72 hrs by luminescent cell viability assay. Type of series: functional, cell-based. Conditions: MV4-11, 72 h.
For series [4], the target named is Receptor-type tyrosine-protein kinase FLT3 (Homo sapiens, UniProt P36888, D835Y). Kind of series: Inhibition of recombinant FLT3 D835Y mutant (unknown origin) by TR-FRET assay.
For series [5], the target named is T1, Receptor-type tyrosine-protein kinase FLT3 (Homo sapiens, UniProt P36888).
T1 sequence (P36888 whole entry): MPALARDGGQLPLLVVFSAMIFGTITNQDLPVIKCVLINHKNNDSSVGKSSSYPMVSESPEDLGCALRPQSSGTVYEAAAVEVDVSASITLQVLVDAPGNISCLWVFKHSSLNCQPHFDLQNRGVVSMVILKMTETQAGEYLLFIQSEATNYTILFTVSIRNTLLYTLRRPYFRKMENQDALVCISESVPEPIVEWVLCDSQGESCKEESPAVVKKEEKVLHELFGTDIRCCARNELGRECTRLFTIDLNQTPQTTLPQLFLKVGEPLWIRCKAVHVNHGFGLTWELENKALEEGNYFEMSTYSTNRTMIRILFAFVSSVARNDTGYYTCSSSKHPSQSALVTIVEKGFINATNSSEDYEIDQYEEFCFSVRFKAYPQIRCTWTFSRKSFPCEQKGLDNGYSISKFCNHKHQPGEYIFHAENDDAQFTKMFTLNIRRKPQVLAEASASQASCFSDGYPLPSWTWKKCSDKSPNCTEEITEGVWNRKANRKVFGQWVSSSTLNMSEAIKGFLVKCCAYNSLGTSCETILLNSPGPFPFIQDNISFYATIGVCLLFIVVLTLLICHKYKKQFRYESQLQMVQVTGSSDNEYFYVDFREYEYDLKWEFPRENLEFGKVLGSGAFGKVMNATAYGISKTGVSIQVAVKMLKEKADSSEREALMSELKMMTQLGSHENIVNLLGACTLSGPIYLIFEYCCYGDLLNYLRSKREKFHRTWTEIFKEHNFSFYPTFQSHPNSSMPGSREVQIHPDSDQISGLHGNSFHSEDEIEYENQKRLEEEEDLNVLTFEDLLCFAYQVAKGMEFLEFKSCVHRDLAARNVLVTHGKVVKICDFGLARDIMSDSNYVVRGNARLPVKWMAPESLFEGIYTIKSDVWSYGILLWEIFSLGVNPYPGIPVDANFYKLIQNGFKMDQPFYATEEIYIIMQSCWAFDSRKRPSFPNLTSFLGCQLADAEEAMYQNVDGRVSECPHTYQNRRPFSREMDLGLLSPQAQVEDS
Nature of the series: Inhibition of recombinant FLT3 (unknown origin) by TR-FRET assay.

In series [6] the target is MAP kinase-interacting serine/threonine-protein kinase 2 (Homo sapiens) (UniProt Q9HBH9). Nature of the series: Inhibition of MNK2 (unknown origin) at 10 uM.
Chain of MAP kinase-interacting serine/threonine-protein kinase 2 (Homo sapiens) (Q9HBH9 whole entry, looked up): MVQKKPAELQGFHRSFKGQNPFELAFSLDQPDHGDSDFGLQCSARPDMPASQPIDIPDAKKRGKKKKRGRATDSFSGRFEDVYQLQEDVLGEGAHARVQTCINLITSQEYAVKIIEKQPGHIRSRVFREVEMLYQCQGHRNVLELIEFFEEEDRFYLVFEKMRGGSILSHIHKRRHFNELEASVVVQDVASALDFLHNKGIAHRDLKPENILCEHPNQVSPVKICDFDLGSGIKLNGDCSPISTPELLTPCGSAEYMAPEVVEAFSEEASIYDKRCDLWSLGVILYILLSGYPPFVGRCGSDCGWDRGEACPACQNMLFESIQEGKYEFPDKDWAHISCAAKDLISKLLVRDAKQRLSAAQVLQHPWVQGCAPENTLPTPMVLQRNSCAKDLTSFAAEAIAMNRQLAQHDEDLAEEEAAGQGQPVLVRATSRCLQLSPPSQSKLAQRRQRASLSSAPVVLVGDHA
In series [7] the target is Receptor-type tyrosine-protein kinase FLT3 (Homo sapiens, UniProt P36888, ITD). Kind of series: Inhibition of recombinant FLT3 ITD mutant (unknown origin) by RBC kinase assay.
Series [8] is described as follows: Antiproliferative activity against human THP1 cells assessed as growth inhibition at 5 uM after 72 hrs by luminescent cell viability assay. The series is classed as functional. The following applies: THP-1, 72 h, read-out: GI.
For series [9], the system named is MV4-11. Kind of series: Antiproliferative activity against human MV4-11 cells assessed as growth inhibition at 5 uM after 72 hrs by luminescent cell viability assay. Conditions: MV4-11, 72 h, read-out: GI. Type of series: functional.
For series [10], the target named is MAP kinase-interacting serine/threonine-protein kinase 1 (Homo sapiens) (UniProt Q9BUB5). Nature of the series: Inhibition of MNK1 (unknown origin) at 10 uM.
Chain of MAP kinase-interacting serine/threonine-protein kinase 1 (Homo sapiens) (Q9BUB5 whole entry, looked up): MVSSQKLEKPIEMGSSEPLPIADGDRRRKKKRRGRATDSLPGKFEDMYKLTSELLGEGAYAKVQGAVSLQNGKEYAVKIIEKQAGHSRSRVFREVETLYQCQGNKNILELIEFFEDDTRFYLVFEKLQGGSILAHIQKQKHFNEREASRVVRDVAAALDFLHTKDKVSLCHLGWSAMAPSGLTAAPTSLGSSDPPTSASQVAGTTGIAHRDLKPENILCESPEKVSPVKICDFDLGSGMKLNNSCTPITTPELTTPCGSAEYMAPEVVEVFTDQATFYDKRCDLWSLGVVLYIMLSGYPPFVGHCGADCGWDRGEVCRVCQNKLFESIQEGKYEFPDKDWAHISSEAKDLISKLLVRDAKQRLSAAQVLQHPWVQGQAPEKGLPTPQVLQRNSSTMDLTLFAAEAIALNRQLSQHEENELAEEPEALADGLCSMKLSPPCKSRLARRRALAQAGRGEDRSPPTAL
Series [11] can be described thus: Antiproliferative activity against human HEK293T cells assessed as growth inhibition at 5 uM after 72 hrs by luminescent cell viability assay. Type of series: cell-based, HEK-293T. Conditions: read-out: GI.
For the next series, the system named is K562. Nature of the series: Antiproliferative activity against human K562 cells assessed as growth inhibition at 5 uM after 72 hrs by luminescent cell viability assay. Type of series: functional. The following applies: K562, 72 h, read-out: GI.
Series [12] in a line: Antiproliferative activity against human HL60 cells assessed as growth inhibition at 5 uM after 72 hrs by luminescent cell viability assay. The series is classed as functional. The following applies: HL-60, 72 h, read-out: GI.

In [1], `CCN(CC)CCNC(=O)c1c(C)[nH]c(/C=C2\C(=O)Nc3ccc(F)cc32)c1C` gave a T1/2 of 11.3 min.
For `COc1cc(O)c(C(=O)OC(C)C)c(CCCN2C(=O)C=CC2=O)c1`, the IC50 (usually the concentration at which inhibition is half-maximal) amounted to 6740 nM in series [2]; 1570 nM with MV4-11 [3]; 3030 nM in series [4]; 430 nM in series [5]; 13200 nM in series [7]. The results for the inhibition in series [6] and in series [10] were 2.4% and 6.2%, respectively. Further, the inhibition of growth at 5 µM in series [8] worked out at 98.8%; in the series with MV4-11 [9], 99.8%; in the series with K562 it was 98.9%; in series [12], 67.9%. For the same compound, in series [11], the inhibition at 72 h, 5 µM amounted to 13.4%.
With `COc1cc(O)c(C(=O)OC(C)C)c(/C=C/CN2C(=O)C=CC2=O)c1`, the IC50 turned out to be 7320 nM in series [2]; 1730 nM with MV4-11 [3]; 1340 nM in series [4]; 540 nM in series [5]; 9790 nM in series [7]. For the same compound, the results for the inhibition in series [6] and in series [10] were 4.1% and 5.4%, respectively. Also, the inhibition of growth at 5 µM in series [8] amounted to 41.8%; with MV4-11 [9] it was 99.8%; in the series on K562, 95.7%; in [12] it was 65.7%. In addition, the inhibition at 72 h, 5 µM in series [11] was found to be 8%.

(Values after ChEMBL document CHEMBL3352474, “Design, synthesis and biological evaluation of FLT3 covalent inhibitors with a resorcylic acid core” (Bioorg Med Chem, 2014).)
